Article PMC5484537 (Bioorganic & medicinal chemistry, 2016)
Blank lines part the entries; values can stand above or below the molecule they belong to.

Tests used:
TAK1 [1] = target: T1, TAK1 (Homo sapiens, UniProt O43318); assay: KINOMEscan binding to TAK1; settings: for binding to TAK1 in KINOMEscan: concentration of 1 μM
T1 sequence (O43318 1-606): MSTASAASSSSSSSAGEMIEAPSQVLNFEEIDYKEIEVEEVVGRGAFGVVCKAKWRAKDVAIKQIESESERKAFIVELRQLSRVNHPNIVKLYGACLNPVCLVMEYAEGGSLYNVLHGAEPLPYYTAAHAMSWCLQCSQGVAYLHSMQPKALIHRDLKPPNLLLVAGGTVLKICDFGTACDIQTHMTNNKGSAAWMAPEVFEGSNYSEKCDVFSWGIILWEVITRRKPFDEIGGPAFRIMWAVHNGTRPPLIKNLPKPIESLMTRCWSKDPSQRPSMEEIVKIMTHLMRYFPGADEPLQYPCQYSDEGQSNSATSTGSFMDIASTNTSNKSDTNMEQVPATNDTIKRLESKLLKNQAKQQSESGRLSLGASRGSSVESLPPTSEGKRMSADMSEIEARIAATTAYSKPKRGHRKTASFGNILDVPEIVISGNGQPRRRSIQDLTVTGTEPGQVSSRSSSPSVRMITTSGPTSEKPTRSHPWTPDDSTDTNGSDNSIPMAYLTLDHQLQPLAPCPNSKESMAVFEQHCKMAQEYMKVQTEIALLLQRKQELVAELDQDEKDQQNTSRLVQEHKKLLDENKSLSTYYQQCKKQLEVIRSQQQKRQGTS

[2] = tested on: panel of 468 kinases and mutants; assay: KINOMEscan in vitro ATP-site competition binding assay, kinome selectivity; set-up: species or system human; settings: KINOMEscan at 1 μM; for selectivity score S(1): 468 kinases and mutants, kinases with scores less than 1
TAK1 [3] = target: T2, TAK1 (Homo sapiens, UniProt O43318); assay: Mass spectrometry analysis of purified TAK1 incubated with compound; format: binding; settings: Fig S3
T2 sequence (O43318 with tags, fused parts or gaps): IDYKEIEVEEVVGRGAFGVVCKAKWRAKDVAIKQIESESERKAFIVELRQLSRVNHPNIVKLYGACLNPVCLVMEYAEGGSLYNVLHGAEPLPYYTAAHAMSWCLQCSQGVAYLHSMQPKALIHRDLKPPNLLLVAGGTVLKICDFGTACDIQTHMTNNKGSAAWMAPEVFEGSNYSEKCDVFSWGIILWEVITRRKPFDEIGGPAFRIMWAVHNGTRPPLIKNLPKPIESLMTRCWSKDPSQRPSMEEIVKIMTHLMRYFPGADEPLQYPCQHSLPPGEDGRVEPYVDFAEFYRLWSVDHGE

ERK2 = ERK2 (Homo sapiens, UniProt P28482); assay: Z'-Lyte activity assay, ERK2; format: biochemical; settings: compound incubation time of 60 min
ERK2, sequence (P28482 2-360): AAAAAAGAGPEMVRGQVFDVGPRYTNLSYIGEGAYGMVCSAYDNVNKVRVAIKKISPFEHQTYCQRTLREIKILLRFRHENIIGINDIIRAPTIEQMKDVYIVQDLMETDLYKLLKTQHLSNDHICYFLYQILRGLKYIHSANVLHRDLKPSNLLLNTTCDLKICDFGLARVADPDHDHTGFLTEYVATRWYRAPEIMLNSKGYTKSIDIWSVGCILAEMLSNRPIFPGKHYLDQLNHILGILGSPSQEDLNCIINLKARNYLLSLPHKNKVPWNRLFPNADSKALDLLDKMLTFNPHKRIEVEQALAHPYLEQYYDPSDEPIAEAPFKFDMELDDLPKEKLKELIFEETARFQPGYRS

TAK1 [4] = target: T3, TAK1 (Homo sapiens, UniProt O43318); assay: Time-dependent experiments, Kinact/Ki determination; format: binding
T3 sequence (O43318 1-303 limits assumed): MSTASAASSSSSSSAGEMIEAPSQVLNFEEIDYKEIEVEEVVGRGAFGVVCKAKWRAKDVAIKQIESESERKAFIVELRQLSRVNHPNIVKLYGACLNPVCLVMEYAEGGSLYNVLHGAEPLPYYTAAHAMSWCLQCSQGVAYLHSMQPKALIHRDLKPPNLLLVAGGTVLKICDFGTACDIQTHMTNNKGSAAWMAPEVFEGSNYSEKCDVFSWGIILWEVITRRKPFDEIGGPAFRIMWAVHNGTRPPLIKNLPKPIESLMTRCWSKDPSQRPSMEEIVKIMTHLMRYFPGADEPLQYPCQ

inhibition score against TAK1 in KINOMEscan (TAK1 [1]; 10 μM): moderate inhibition score
binding to TAK1 in KINOMEscan (TAK1 [1]): did not display strong binding
Structure (SMILES): COc1cc(O)c2c(c1)/C=C/C[C@H](O)[C@H](O)C(=O)/C=C\C[C@H](C)OC2=O [5Z7, 5Z-7-oxozeaenol, reference compound]

Structure (SMILES): C=CC(=O)Oc1ccccc1Nc1nc(Nc2ccc(N3CCN(C)CC3)cc2)ncc1Cl [compound 7, 2-((5-chloro-2-((4-(4-methylpiperazin-1-yl)phenyl)amino)pyrimidin-4-yl)amino)phenyl acrylate]
selectivity score S(1) [2]: 0.19

Structure (SMILES): C=CC(=O)Nc1ccccc1Oc1nc(Nc2cnn(CCOC)c2)ncc1Cl [compound 25]
selectivity score S(5) [2]: 0.03
binding to TAK1 in KINOMEscan (TAK1 [1]): TAK1 was not ranked among the strongest hits

labeling of TAK1 residue (TAK1 [3]): exclusive labeling of Cys174
Structure (SMILES): C=CC(=O)Nc1ccccc1Oc1nc(Nc2ccc(N3CCN(C)CC3)cc2)ncc1Cl [compound 2, N-(2-((5-chloro-2-((4-(4-methylpiperazin-1-yl)phenyl)amino)pyrimidin-4-yl)oxy)phenyl)acrylamide]

Structure (SMILES): C=CC(=O)Nc1ccccc1Nc1nc(Nc2ccc(N3CCN(C)CC3)cc2)ncc1Cl [compound 5, N-(2-((5-chloro-2-((4-(4-methylpiperazin-1-yl)phenyl)amino)pyrimidin-4-yl)amino)phenyl)acrylamide]
Enzymatic IC50s ERK2 (ERK2): weak activity
binding to kinases with a cysteine at the DFG-1 position [2]: binds to TAK1 and ten other kinases with a cysteine at the DFG-1 position
selectivity score S(1) [2]: 0.10
kinact/KI (TAK1 [4]): 6870 M⁻¹ s⁻¹

Structure (SMILES): CCC(=O)Nc1ccccc1Nc1nc(Nc2ccc(N3CCN(C)CC3)cc2)ncc1Cl [compound 9]
binding to kinases with a cysteine at the DFG-1 position [2]: hits no kinases with a cysteine at the DFG-1 position
selectivity score S(1) [2]: 0.10

Structure (SMILES): C=CC(=O)Nc1ccccc1Oc1nc(Nc2cnn(C(F)F)c2)ncc1Cl [compound 23]
selectivity score S(5) [2]: 0.1
binding to TAK1 in KINOMEscan (TAK1 [1]): TAK1 was not ranked among the strongest hits
